Measurements reported in US20240269304A1, “BCL-XL INHIBITOR ANTIBODY-DRUG CONJUGATES AND METHODS OF USE THEREOF” (Novartis AG, priority 2020, published 2024).
Like-named read-outs stand apart in the source and are kept apart here.

Tests used:
H1650 cells = test: CellTiterGlo (CTG) cell viability, 3D, 120 h, H1650 (Example 8); type: cell-based, human
[1] = ADC stability study: % aggregates by SEC after incubation at 37° C. for 168 h; type: physicochemical
Procedure: Size Exclusion Chromatography: Size exclusion chromatography (SEC) was performed for quality control of each ADCs by measuring monomer percentage of the conjugate. The analysis was performed on analytical column Superdex 200 Increase 5/150 GL (GE Healthcare, 28990945) in isocratic conditions 100% PBS pH7.4 (Sigma Life Science, P3813, 10PAK), flow 0.45 mI/min for 12 minutes. The % aggregate fraction of the conjugate sample was quantified based on the peak area absorbance at 280 nm. Its calculation was based on the ratio between the high molecular weight eluent at 280 nm divided by the sum of peak area absorbance at the same wavelength of the high molecular weight and monomeric eluents multiplied by 100.
Characterization of the exemplary ADCs is summarized in Table 13 (coupling, LC-MS method, OAR, aggregation status, ADO stability and yield). The average OAR values were determined using the above LC-MS methods and the percentage of aggregates was measured by size exclusion chromatography (SEC) during the quality control of the ADO and after the stability study (incubation at 37° C. for 168 h).

ALL-SIL cells = test: CellTiterGlo (CTG) cell viability, 72 h, ALL-SIL (Example 8); type: cell-based
Procedure: ALL-SIL cells were cultivated in RPMI supplemented with 20% heat inactivated fetal bovine serum, penicillin (100 IU/ml), streptomycin (100 μg/ml) and L-glutamine (2 mM). Cell lines were cultured at 37° C. in a humidified atmosphere containing 5% CO2. Cells were seeded in 96 well clear bottom plates (96 well clear-bottom, white, Corning reference 3903) and exposed to the payloads or ADCs for 72 h (serially diluted; 9 concentrations each, triplicates). Effects of payloads or ADCs on cell viability were assessed after 3 days of incubation at 37° C./5% CO2 by quantification of cellular ATP levels using CellTiterGlo at 75 μL reagent/well. All the conditions were tested in triplicates. Luminescence was quantified on a multipurpose plate reader. IC50s were calculated using standard four-parametric curve fitting. […] Each experiment was performed at least twice, with results being reproducible.

DND-41 cells = test: CellTiterGlo (CTG) cell viability, 72 h, DND-41 (Example 8); type: cell-based
Procedure: DND-41 cells were cultivated in RPMI supplemented with 10% heat inactivated fetal bovine serum, penicillin (100 IU/ml), streptomycin (100 μg/ml) and L-glutamine (2 mM). Cell lines were cultured at 37° C. in a humidified atmosphere containing 5% CO2. […] Effects of payloads or ADCs on cell viability were assessed after 3 days of incubation at 37° C./5% CO2 by quantification of cellular ATP levels using CellTiterGlo at 75 μL reagent/well. All the conditions were tested in triplicates. Luminescence was quantified on a multipurpose plate reader. IC50s were calculated using standard four-parametric curve fitting.

ALL-SILL (T-ALL) = test: CellTiter-Glo viability 72 h, single agent or 1/1 combination, ALL-SIL (Example 9); type: cell-based; conditions: single agent or 1/1 combination as labelled
Procedure: Cell lines were cultured in the media described above at 37° C. in a humidified atmosphere containing 5% CO2. […] Effects of payloads or ADCs on cell viability were assessed after 3 days of incubation at 37° C./5% CO2 by quantification of cellular ATP levels using CellTiter-Glo reagent (Promega Ref: G7571) at 75 μL reagent/well. All the conditions were tested in triplicates. Luminescence was quantified on a multipurpose plate reader. IC50s were calculated using standard four-parametric curve fitting.

[2] = H1650 3D, experiment n1, read-out: H1650 3D CTG IC50 n1
[3] = H1650 3D, experiment n2, read-out: H1650 3D CTG IC50 n2
[4] = H1650 3D, mean of n1 and n2, read-out: H1650 3D CTG IC50 Mean of n1 and n2
[5] = experiment n1, read-out: ALLSIL CTG 72 h IC50 nM n1
[6] = experiment n2, read-out: ALLSIL CTG 72 h IC50 nM n2
[7] = mean of n1 and n2, read-out: ALLSIL CTG 72 h IC50 nM Mean of n1 and n2
[8] = experiment n1, read-out: DND41 CTG 72 h IC50 nM n1
[9] = experiment n2, read-out: DND41 CTG 72 h IC50 nM n2
[10] = mean of n1 and n2, read-out: DND41 CTG 72 h IC50 nM Mean of n1 and n2
[11] = n1, read-out: ALL-SILL (T-ALL) IC50 n1
[12] = n2, read-out: ALL-SILL (T-ALL) IC50 n2

Compound | IC50 (H1650 cells; [2]) | IC50 (H1650 cells; [3]) | IC50 (H1650 cells; [4]) | Stab w1 +37° C. % Agg (by SEC) [1] | IC50 (ALL-SIL cells; [5]) | IC50 (ALL-SIL cells; [6]) | IC50 (ALL-SIL cells; [7]) | IC50 (DND-41 cells; [8]) | IC50 (DND-41 cells; [9]) | IC50 (DND-41 cells; [10]) | further results
Cc1c(Nc2nc3ccccc3s2)nnc2c1CC(OCCN(C)C(=O)OCc1ccc(NC(=O)[C@H](CCCNC(N)=O)NC(=O)[C@@H](NC(=O)CCOCCN3C(=O)CC(C)C3=O)C(C)C)cc1)CN2c1nc(C(=O)O)c(CCCOc2ccc(C#CCN(C)C)cc2F)s1 (stereo partly shown) [Ab C - L9C-P16] | 3900 pM | 4200 pM | 4050 pM | 2.4% |  |  |  |  |  |  | 
Cc1c(Nc2nc3ccccc3s2)nnc2c1CCCN2c1nc(C(=O)O)c(CCCOc2ccc(C#CCN3CCN(C(=O)OCc4ccc(NC(=O)[C@H](CCCNC(N)=O)NC(=O)[C@@H](NC(=O)CCOCCN5C(=O)CC(C)C5=O)C(C)C)cc4)CC3)cc2F)s1 (stereo partly shown) [Ab C - L9C-P17] | 2850 pM | 2510 pM | 2680 pM | 22% |  |  |  |  |  |  | 
C=C(C)CCCC[C@](C)(CC(=C)[C@@](C)(CC(=C)CCCCCC1C(=C)CC(C)C1=C)C(C)C)C(=C)Cc1ccc(CCC(=C)C(CCCCC)CCC[C@]23C[C@]4(C)C[C@](C)(C2)C[C@@](CC2C=CC(c5ccc(C(C)c6ccc(CC7=Cc8ccccc8C7)c(C)c6)cc5C(=C)C)=C2C)(C4)C3)cc1 (stereo partly shown) [Ab C - L9C-P29] | 130 pM | 90 pM | 110 pM | 16% |  |  |  |  |  |  | 
C=C(C)CCCC[C@](C)(CC(=C)[C@@](C)(CC(=C)CCCCCC1C(=C)CC(C)C1=C)C(C)C)C(=C)Cc1ccc(CCC(=C)C2CCC(CCC[C@]34C[C@]5(C)C[C@](C)(C3)C[C@@](CC3C=CC(c6ccc(C7CCCc8c7ccc(CC7=Cc9ccccc9C7)c8C)cc6C(=C)C)=C3C)(C5)C4)CC2)cc1 (stereo partly shown) [Ab C - L9C-P31] | 70 pM | 100 pM | 90 pM | 6% |  |  |  |  |  |  | 
Cc1c(Nc2nc3ccccc3s2)nnc2c1CCCN2c1nc(C(=O)O)c(CCCOc2ccc(C#CCN(C)C(=O)OCc3ccc(NC(=O)[C@H](CCCNC(N)=O)NC(=O)[C@@H](NC(=O)CCOCCN4C(=O)CC(C)C4=O)C(C)C)cc3S(=O)(=O)O)cc2F)s1 (stereo partly shown) [Ab C - L27C-P3] | 1400 pM | 2600 pM | 2000 pM | 17% |  |  |  |  |  |  | 
Cc1cc(N(C)c2nc(C(=O)O)c(CCCOc3ccc(C#CCN(C)C(=O)OCc4ccc(NC(=O)[C@H](C)NC(=O)[C@@H](NC(=O)CCOCCN5C(=O)CC(C)C5=O)C(C)C)cc4CC[C@@H]4O[C@H](C(=O)O)[C@@H](O)[C@H](O)[C@H]4O)cc3F)s2)nnc1Nc1nc2ccccc2s1 (stereo partly shown) [Ab C -L106C-P7] | 1800 pM | 1500 pM | 1650 pM | 29% |  |  |  |  |  |  | 
CC(=O)C1=C(CCCOc2ccc(C#CCC(C)(C)Cc3ccc(NC(=O)[C@H](CCCNC(N)=O)NC(=O)[C@@H](NC(=O)CCOCCN4C(=O)CC(C)C4=O)C(C)C)cc3)cc2C)CC(C2CCCC3C2=NN=C(NC2=Nc4ccccc4C2)C3C)=C1 (stereo partly shown) [Ab D - L9A-P1] |  |  |  | 8% | 0.025 nM | 0.037 nM | 0.031 nM | 0.16 nM | 0.14 nM | 0.15 nM | 
Cc1c(Nc2nc3ccccc3s2)nnc2c1CCCN2c1nc(C(=O)O)c(CCCOc2ccc(C#CCN3CCN(C(=O)OCc4ccc(NC(=O)[C@H](CCCNC(N)=O)NC(=O)[C@@H](NC(=O)CCOCCN5C(=O)CC(C)C5=O)C(C)C)cc4)CC3)cc2F)s1 (stereo partly shown) [Ab D - L9C-P17] |  |  |  | 6% | 0.006 nM | 0.01 nM | 0.008 nM | 2.1 nM | 0.38 nM | 1.24 nM | 
Cc1cc(N(CCCO)C2=NC(C(=O)O)=C(CCCOc3ccc(C#CCN(C)C(=O)OCc4ccc(NC(=O)[C@](C)(CCCNC(N)=O)NC(=O)[C@@H](NC(=O)CCOCCN5C(=O)CC(C)C5=O)C(C)C)cc4)cc3F)C2)nnc1Nc1nc2ccccc2s1 (stereo partly shown) [Ab D - L9C-P45] |  |  |  | 2% | 0.36 nM | 0.38 nM | 0.37 nM | > 100 nM | > 100 nM | > 100 nM | 
Cc1cc(N(CCCC(O)CO)C2=NC(C(=O)O)=C(CCCOc3ccc(C#CCN(C)C(=O)OCc4ccc(NC(=O)[C@H](CCCNC(N)=O)NC(=O)[C@@H](NC(=O)CCOCCN5C(=O)CC(C)C5=O)C(C)C)cc4)cc3F)C2)nnc1Nc1nc2ccccc2s1 (stereo partly shown) [Ab D - L9C-P46] |  |  |  | 6% | 0.18 nM | 0.2 nM | 0.19 nM | > 100 nM | > 100 nM | > 100 nM | 
C=C(C)CCCC[C@](C)(NC(=O)[C@@](C)(NC(=O)CCOCCN1C(=O)CC(C)C1=O)C(C)C)C(=O)Nc1ccc(CC(C)(C)CC#Cc2ccc(OCCCC3=C(C(C)=O)N=C(N4CCCc5c4nnc(Oc4nc6ccccc6o4)c5C)C3)c(C)c2)c(S(=O)(=O)O)c1 (stereo partly shown) [Ab D - L27A-P1] |  |  |  | 9% | 0.028 nM | 0.018 nM | 0.023 nM | 0.21 nM | 0.28 nM | 0.245 nM | 
Cc1c(Nc2nc3ccccc3s2)nnc2c1CCCN2c1ccc(-c2cnn(C[C@]34C[C@]5(C)C[C@](C)(C3)C[C@@](OCCN3CCCCCC3)(C5)C4)c2C)c(C(=O)O)n1 [P33, 3-[1-[[3-[2-(azepan-1-yl)ethoxy]-5,7-dimethyl-1-adamantyl]methyl]-5-methyl-pyrazol-4-yl]-6-[3-(1,3-benzothiazol-2-ylamino)-4-methyl-6,7-dihydro-5H-pyrido[2,3-c]pyridazin-8-yl]pyridine-2-carboxylic acid] |  |  |  |  |  |  |  |  |  |  | IC50 (H1650 cells; Homo sapiens, NCI-H1650, H1650 3D, experiment n1, read-out: H1650 3D CTG IC50 n1): 890 pM; IC50 (H1650 cells; Homo sapiens, NCI-H1650, H1650 3D, experiment n2, read-out: H1650 3D CTG IC50 n2): 570 pM; IC50 (H1650 cells; Homo sapiens, NCI-H1650, H1650 3D, mean of n1 and n2, read-out: H1650 3D CTG IC50 Mean of n1 and n2): 730 pM; IC50 (ALL-SILL (T-ALL); mean, read-out: ALL-SILL (T-ALL) IC50 mean): 145 pM; IC50 (ALL-SILL (T-ALL); [11]): 100 pM; IC50 (ALL-SILL (T-ALL); [12]): 190 pM
Cc1c(Nc2nc3ccccc3s2)nnc2c1CCCN2c1ccc(-c2cnn(CC34CC5(C)CC(C)(CC(CCCNCCCO)(C5)C3)C4)c2C)c(C(=O)O)n1 [P40, 6-[3-(1,3-benzothiazol-2-ylamino)-4-methyl-6,7-dihydro-5H-pyrido[2,3-c]pyridazin-8-yl]-3-[1-[[3-[3-(3-hydroxypropylamino)propyl]-5,7-dimethyl-1-adamantyl]methyl]-5-methyl-pyrazol-4-yl]pyridine-2-carboxylic acid] |  |  |  |  |  |  |  |  |  |  | IC50 (ALL-SILL (T-ALL); [11]): 1060 pM; IC50 (ALL-SILL (T-ALL); [12]): 1260 pM
